Results from PubChem BioAssay (NCI).
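48-hour exposure; five concentrations; linearly interpolated endpoints. GI50 = concentration required for 50% inhibition of growth. TGI: total growth inhibition.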

Experiments:
Experiment in all cases: inhibition of tumour cell growth, NCI panel, 48 h
[1] = tested on: ACHN renal
[2] = tested on: OVCAR-3 ovarian
[3] = tested on: IGROV1 ovarian
[4] = tested on: HL-60(TB) leukemia
[5] = tested on: SF-539 CNS
[6] = tested on: NCI-H23 lung
[7] = tested on: NCI/ADR-RES ovarian
[8] = tested on: SK-MEL-2 melanoma
[9] = tested on: SF-295 CNS
[10] = tested on: COLO 205 colon
[11] = tested on: SR leukemia
[12] = tested on: RXF 393 renal
[13] = tested on: K-562 leukemia
[14] = tested on: NCI-H460 lung
[15] = tested on: CCRF-CEM leukemia
[16] = tested on: MDA-MB-435
[17] = tested on: MDA-MB-231 breast
[18] = tested on: SK-OV-3 ovarian
[19] = tested on: 786-0 renal
[20] = tested on: SNB-19 CNS
[21] = tested on: HS 578T breast
[22] = tested on: SN12C renal
[23] = tested on: A498 renal
[24] = tested on: A549 NSCLC
[25] = tested on: OVCAR-8 ovarian
[26] = tested on: UO-31 renal
[27] = tested on: DU-145 prostate
[28] = tested on: NCI-H226 lung
[29] = tested on: OVCAR-4 ovarian
[30] = tested on: SNB-75 CNS
[31] = tested on: HCT-15 colon
[32] = tested on: UACC-257 melanoma
[33] = tested on: OVCAR-5 ovarian
[34] = tested on: KM12 colon
[35] = tested on: HOP-92 NSCLC
[36] = tested on: SF-268 CNS
[37] = tested on: HCC-2998 colon
[38] = tested on: BT-549 breast
[39] = tested on: SK-MEL-28 melanoma
[40] = tested on: SK-MEL-5 melanoma
[41] = tested on: T-47D breast
[42] = tested on: PC-3 prostate
[43] = tested on: UACC-62 melanoma
[44] = tested on: U251 CNS
[45] = tested on: NCI-H522 lung
[46] = tested on: TK-10 renal
[47] = tested on: HT29 colon
[48] = tested on: SW-620 colon
[49] = tested on: HCT-116 colon
[50] = tested on: LOX IMVI melanoma
[51] = tested on: RPMI-8226 leukemia
[52] = tested on: MALME-3M melanoma
[53] = tested on: MCF7 breast
[54] = tested on: HOP-62 NSCLC
[55] = tested on: CAKI-1 renal
[56] = tested on: MOLT-4 leukemia
[57] = tested on: M14 melanoma
[58] = tested on: EKVX NSCLC

Compound `COc1ccc(C2NCCc3c2[nH]c2ccccc32)cc1CN1CCN(c2ccc(F)cc2)CC1` (stereo not drawn) has a GI50 [1] of 1.87 µM, a TGI [1] of 3.69 µM and a GI50 [2] of 2.1 µM. It also gave a TGI [2] of 4.52 µM, a GI50 [3] of 2.5 µM and a TGI [3] of 6.29 µM. The GI50 [4] was 2.14 µM, the TGI [4] was 4.77 µM and the GI50 [5] was 1.88 µM. For the same compound, the TGI [5] was 3.42 µM, the GI50 [6] was 4.77 µM and the TGI [6] was 17 µM. It also gave a GI50 [7] of 2.27 µM, a TGI [7] of 5.89 µM and a GI50 [8] of 2.14 µM. The TGI [8] was 3.93 µM, the GI50 [9] was 1.75 µM and the TGI [9] was 3.4 µM. For the same compound, the GI50 [10] was 1.93 µM, the TGI [10] was 3.65 µM and the GI50 [11] was 1.78 µM. The TGI [11] was 5.28 µM, the GI50 [12] was 1.37 µM and the TGI [12] was 2.94 µM. It also gave a GI50 [13] of 1.73 µM, a TGI [13] of 4.09 µM and a GI50 [14] of 1.85 µM. The TGI [14] was 3.49 µM, the GI50 [15] was 2.8 µM and the TGI [15] was 7.19 µM. For the same compound, the GI50 [16] was 1.66 µM, the TGI [16] was 3.06 µM and the GI50 [17] was 1.4 µM. It also gave a TGI [17] of 3.36 µM, a GI50 [18] of 2.53 µM and a TGI [18] of 6.01 µM. The GI50 [19] was 1.71 µM, the TGI [19] was 3.17 µM and the GI50 [20] was 3.54 µM. The TGI [20] was 13 µM, the GI50 [21] was 1.6 µM and the TGI [21] was 3.75 µM. For the same compound, the GI50 [22] was 3.47 µM, the TGI [22] was 15.5 µM and the GI50 [23] was 0.399 µM. For the same compound, the TGI [23] was 4.21 µM, the GI50 [24] was 2.9 µM and the TGI [24] was 9.29 µM. The GI50 [25] was 1.89 µM, the TGI [25] was 3.95 µM and the GI50 [26] was 1.57 µM. It also gave a TGI [26] of 4.12 µM, a GI50 [27] of 2.76 µM and a TGI [27] of 7.81 µM. For the same compound, the GI50 [28] was 13 µM, the TGI [28] was 35.1 µM and the GI50 [29] was 2.28 µM. For the same compound, the TGI [29] was 7.22 µM, the GI50 [30] was 1.25 µM and the TGI [30] was 2.52 µM. The GI50 [31] was 1.61 µM, the TGI [31] was 3.06 µM and the GI50 [32] was 1.76 µM. It also gave a TGI [32] of 3.26 µM, a GI50 [33] of 2.13 µM and a TGI [33] of 5.2 µM. For the same compound, the GI50 [34] was 1.86 µM, the TGI [34] was 3.33 µM and the GI50 [35] was 2 µM. It also gave a TGI [35] of 5.91 µM, a GI50 [36] of 2.57 µM and a TGI [36] of 7.82 µM. The GI50 [37] was 1.61 µM, the TGI [37] was 3.33 µM and the GI50 [38] was 7.55 µM. For the same compound, the TGI [38] was 20 µM, the GI50 [39] was 1.61 µM and the TGI [39] was 3.05 µM. It also gave a GI50 [40] of 1.63 µM, a TGI [40] of 3.01 µM and a GI50 [41] of 1.88 µM. The TGI [41] was 3.94 µM, the GI50 [42] was 2.21 µM and the TGI [42] was 5.35 µM. The GI50 [43] was 1.8 µM, the TGI [43] was 3.32 µM and the GI50 [44] was 1.56 µM. For the same compound, the TGI [44] was 2.93 µM, the GI50 [45] was 1.93 µM and the TGI [45] was 3.73 µM. For the same compound, the GI50 [46] was 3.2 µM, the TGI [46] was 9.65 µM and the GI50 [47] was 1.7 µM. For the same compound, the TGI [47] was 3.49 µM, the GI50 [48] was 1.74 µM and the TGI [48] was 3.33 µM. It also gave a GI50 [49] of 1.62 µM, a TGI [49] of 3 µM and a GI50 [50] of 1.64 µM. For the same compound, the TGI [50] was 3.09 µM, the GI50 [51] was 2.47 µM and the TGI [51] was 5.65 µM. For the same compound, the GI50 [52] was 1.88 µM, the TGI [52] was 3.49 µM and the GI50 [53] was 1.66 µM. For the same compound, the TGI [53] was 3.27 µM, the GI50 [54] was 1.81 µM and the TGI [54] was 3.82 µM. The GI50 [55] was 1.57 µM, the TGI [55] was 3.31 µM and the GI50 [56] was 1.97 µM. The TGI [56] was 5.25 µM.

`c1ccc2c(c1)CCc1c-2n(CCN2CCCCC2)c2ccccc12` showed a TGI [1] of 39.3 µM, a TGI [2] of 31.1 µM and a TGI [3] of 27.3 µM. The TGI [5] was 26.6 µM, the TGI [6] was 32.1 µM and the TGI [7] was 33.1 µM. It also gave a TGI [8] of 30.2 µM, a TGI [9] of 30.8 µM and a TGI [10] of 26.2 µM. The TGI [11] was 32.3 µM, the TGI [13] was 30.9 µM and the TGI [57] was 29.7 µM. The TGI [14] was 29.7 µM, the TGI [15] was greater than 100 µM and the TGI [58] was 37.9 µM. For the same compound, the TGI [16] was 74.4 µM, the TGI [17] was 28 µM and the TGI [18] was 49.7 µM. The TGI [19] was 33 µM, the TGI [20] was 94.5 µM and the TGI [21] was 35.4 µM. For the same compound, the TGI [22] was 36.9 µM, the TGI [24] was 43.7 µM and the TGI [25] was 32 µM. For the same compound, the TGI [26] was 23.7 µM, the TGI [27] was greater than 100 µM and the TGI [28] was 25.1 µM. For the same compound, the TGI [29] was 59.4 µM, the TGI [30] was 49.1 µM and the TGI [31] was 22.9 µM. It also gave a TGI [32] of 32.5 µM, a TGI [33] of 30.2 µM and a TGI [34] of 32 µM. It also gave a TGI [35] of 35 µM, a TGI [36] of 49.5 µM and a TGI [37] of 26.4 µM. The TGI [38] was 42.1 µM, the TGI [39] was 50.9 µM and the TGI [40] was 12.9 µM. For the same compound, the TGI [41] was 44.5 µM, the TGI [42] was 27.1 µM and the TGI [43] was 29.1 µM. For the same compound, the TGI [44] was 30.3 µM, the TGI [45] was 27.1 µM and the TGI [46] was 35.9 µM. The TGI [47] was 22.8 µM, the TGI [48] was 50.1 µM and the TGI [49] was 25.5 µM. It also gave a TGI [50] of 29.6 µM, a TGI [51] of 40.3 µM and a TGI [52] of 40.3 µM. The TGI [53] was 30.9 µM, the TGI [54] was 30.1 µM and the TGI [55] was 52.3 µM. It also gave a TGI [56] of 44.8 µM.

For `CCOC(=O)CCC(NC(=O)c1ccc(CNc2nc3cc(N)cc(N)c3nc2-c2ccccc2)cc1)C(=O)OCC` (stereo not drawn), the TGI [1] was greater than 100 µM, the TGI [2] was greater than 100 µM and the TGI [3] was greater than 100 µM. The TGI [4] was greater than 45 µM, the TGI [5] was greater than 100 µM and the TGI [6] was greater than 100 µM. It also gave a TGI [7] greater than 100 µM, a TGI [8] greater than 87.9 µM and a TGI [9] greater than 100 µM. It also gave a TGI [10] greater than 100 µM, a TGI [11] of 23.7 µM and a TGI [12] greater than 100 µM. It also gave a TGI [13] greater than 100 µM, a TGI [57] greater than 61.6 µM and a TGI [14] greater than 100 µM. It also gave a TGI [58] greater than 100 µM, a TGI [16] greater than 86.4 µM and a TGI [17] greater than 68.1 µM. It also gave a TGI [18] greater than 100 µM, a TGI [19] greater than 100 µM and a TGI [20] greater than 100 µM. The TGI [21] was greater than 100 µM, the TGI [22] was greater than 90.2 µM and the TGI [23] was greater than 100 µM. The TGI [24] was greater than 100 µM, the TGI [25] was greater than 100 µM and the TGI [26] was greater than 100 µM. The TGI [27] was greater than 100 µM, the TGI [28] was greater than 100 µM and the TGI [29] was 42 µM. It also gave a TGI [30] greater than 100 µM, a TGI [31] greater than 100 µM and a TGI [32] of 39.1 µM. For the same compound, the TGI [33] was greater than 100 µM, the TGI [34] was greater than 100 µM and the TGI [35] was greater than 100 µM. It also gave a TGI [36] greater than 100 µM, a TGI [37] greater than 100 µM and a TGI [38] greater than 100 µM. The TGI [39] was 66.6 µM, the TGI [40] was greater than 100 µM and the TGI [41] was 49.1 µM. For the same compound, the TGI [42] was greater than 100 µM, the TGI [43] was greater than 100 µM and the TGI [44] was greater than 100 µM. It also gave a TGI [45] greater than 100 µM, a TGI [46] greater than 100 µM and a TGI [47] greater than 100 µM. The TGI [48] was greater than 100 µM, the TGI [49] was greater than 100 µM and the TGI [50] was greater than 100 µM. It also gave a TGI [52] of 35.3 µM, a TGI [53] greater than 100 µM and a TGI [54] greater than 100 µM. It also gave a TGI [55] greater than 100 µM and a TGI [56] of 9.43 µM.
